Results taken from ChEMBL document CHEMBL1130695, “Biologically selective potassium channel openers having 1,1-diethylpropyl group” (1998).

Assays:
Cavia porcellus [1] = species on record: Cavia porcellus; test: Compound was tested for relaxant activity in urinary bladder for urinary incontinence in male guinea pigs; type: functional
Cavia porcellus [2] = species on record: Cavia porcellus; test: Compound was tested for relaxant activity in trachea for asthma in male guinea pigs; type: functional
Cavia porcellus [3] = species on record: Cavia porcellus; test: Compound was tested for relaxant activity in taenia caecum; type: functional; conditions: read-out: ED50 (the source's name)
Canis familiaris = test: Compound was tested for the antihypertensive activity in dogs by intravenous injection at a dose of 30 ug/kg; type: functional, Canis lupus familiaris
Cavia porcellus [4] = species on record: Cavia porcellus; test: Compound was tested for relaxant activity in urinary bladder for urinary incontinence in male guinea pigs at 1 uM concentration; type: functional; design: scale not given: the % may be the effect or the level left

## CCC(C)(C)/N=C(\NC#N)Nc1cc(F)cc(Br)c1
Cavia porcellus [1]
  ED50: 16 nM
Cavia porcellus [2]
  ED50: 180 nM

## CCC(C)(C)/N=C(\NC#N)Nc1cc(Br)cc(C#N)c1
Cavia porcellus [3]
  EC50: 32 nM
Cavia porcellus [1]
  ED50: 11 nM
Cavia porcellus [2]
  ED50: 80 nM

## CCC(C)(CC)/N=C(\NC#N)Nc1cc(Cl)cc(C#N)c1
Canis familiaris
  AHA: -25.2 delta mmHg
Cavia porcellus [3]
  EC50: 100 nM
Cavia porcellus [1]
  ED50: 16 nM
Cavia porcellus [2]
  ED50: 190 nM

## CC(N/C(=N\C#N)Nc1ccncc1)C(C)(C)C (stereo unspecified) [PINACIDIL ANHYDROUS]
Cavia porcellus [1]
  ED50: 310 nM
Cavia porcellus [2]
  ED50: 2300 nM

## CCC(C)(C)/N=C(\NC#N)Nc1cc(F)cc(Cl)c1
Cavia porcellus [1]
  ED50: 32 nM
Cavia porcellus [2]
  ED50: 260 nM

## CCC(C)(CC)/N=C(\NC#N)Nc1cc(Cl)cc(Cl)c1
Cavia porcellus [1]
  ED50: 13 nM
Cavia porcellus [2]
  ED50: 440 nM

## CCC(CC)(CC)/N=C(\NC#N)Nc1cc(Cl)cc(C#N)c1
Canis familiaris
  AHA: -18.9 delta mmHg
Cavia porcellus [3]
  EC50: 94 nM
Cavia porcellus [1]
  ED50: >1000 nM
Cavia porcellus [4]
  Activity: 22%
Cavia porcellus [2]
  ED50: 5600 nM

## CC(C)C(C)(C)/N=C(\NC#N)Nc1cc(Cl)cc(C#N)c1
Canis familiaris
  AHA: -20.3 delta mmHg
Cavia porcellus [3]
  EC50: 170 nM
Cavia porcellus [1]
  ED50: 190 nM
Cavia porcellus [2]
  ED50: 690 nM

## CCC(C)(C)/N=C(\NC#N)Nc1cc(Cl)cc(C#N)c1
Canis familiaris
  AHA: -29.8 delta mmHg
Cavia porcellus [3]
  EC50: 75 nM
Cavia porcellus [1]
  ED50: 20 nM
Cavia porcellus [2]
  ED50: 280 nM

## CC1(C)Oc2ccc(C#N)cc2[C@@H](N2CCCC2=O)[C@@H]1O [CROMAKALIM]
Canis familiaris
  AHA: -37.8 delta mmHg
Cavia porcellus [3]
  EC50: 470 nM
Cavia porcellus [1]
  ED50: 42 nM
Cavia porcellus [2]
  ED50: 1200 nM

## CCC(CC)(CC)/N=C(\NC#N)Nc1cc(Cl)cc(Cl)c1
Canis familiaris
  AHA: -15.9 delta mmHg
Cavia porcellus [1]
  ED50: >1000 nM
Cavia porcellus [4]
  Activity: <5%
Cavia porcellus [2]
  ED50: 30000 nM
